For one series, the target named is T1, ygiF-TTM 1–200 (TTM) (Escherichia coli, UniProt P30871).
T1 sequence (P30871 1-200): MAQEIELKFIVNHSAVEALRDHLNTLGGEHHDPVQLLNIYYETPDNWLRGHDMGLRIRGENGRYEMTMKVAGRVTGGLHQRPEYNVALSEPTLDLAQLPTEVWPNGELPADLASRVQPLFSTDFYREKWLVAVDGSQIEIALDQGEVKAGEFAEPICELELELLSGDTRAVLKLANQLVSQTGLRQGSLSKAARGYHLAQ
The series is described as follows: malachite green phosphate release. The class given is biochemical. The settings on record: 10 nM enzyme, 500 μM substrate, 20 mM Bis-Tris propane pH 8.5, 150 mM NaCl, 5 mM MgCl2, 37°C, 7 min.

In a further series the target is T2, CtCHAD (Chlorobaculum tepidum, UniProt Q8KE09).
T2 construct: gene CT0884; CHAD domain, residues 208-522; N-terminal 6xHis tag cleaved by TEV; E. coli BL21 (DE3) RIL; 36,194 D monomer; mainly dimer, some tetramer in solution
T2 sequence (Q8KE09 208-522): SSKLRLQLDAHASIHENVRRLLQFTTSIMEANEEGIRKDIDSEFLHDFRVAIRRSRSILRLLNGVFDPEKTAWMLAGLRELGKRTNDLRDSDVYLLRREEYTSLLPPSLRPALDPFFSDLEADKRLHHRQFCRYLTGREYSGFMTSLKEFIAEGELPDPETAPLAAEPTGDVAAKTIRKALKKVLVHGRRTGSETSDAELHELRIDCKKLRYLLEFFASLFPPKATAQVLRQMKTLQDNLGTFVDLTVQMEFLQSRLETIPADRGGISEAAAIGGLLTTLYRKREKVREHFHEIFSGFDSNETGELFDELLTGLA
As to the kind of experiment: grating-coupled interferometry competition against polyP-coated chip. The class given is binding.

Series [1] addresses T3, ygiF-full length 1–433 (FL) (Escherichia coli, UniProt P30871).
T3 sequence (P30871 1-433): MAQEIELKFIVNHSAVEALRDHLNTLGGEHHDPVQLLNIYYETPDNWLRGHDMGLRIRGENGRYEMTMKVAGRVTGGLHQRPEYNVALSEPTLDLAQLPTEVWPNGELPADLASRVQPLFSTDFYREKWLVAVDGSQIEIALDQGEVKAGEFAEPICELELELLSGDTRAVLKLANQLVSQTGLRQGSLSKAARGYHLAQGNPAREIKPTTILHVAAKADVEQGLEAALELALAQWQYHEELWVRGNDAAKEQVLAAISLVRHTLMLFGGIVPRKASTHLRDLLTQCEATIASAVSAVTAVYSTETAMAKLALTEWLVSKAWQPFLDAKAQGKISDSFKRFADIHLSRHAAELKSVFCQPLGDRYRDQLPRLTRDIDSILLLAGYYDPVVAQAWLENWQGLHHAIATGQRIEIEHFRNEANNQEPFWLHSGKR
The series is described as follows: malachite green phosphate release. Type of series: biochemical. The note with it: 10 nM enzyme, 500 μM substrate, 20 mM Bis-Tris propane pH 8.5, 150 mM NaCl, 5 mM MgCl2, 37°C, 7 min.

Series [2] concerns the molecule itself. The series is described as follows: SEC-RALS (size-exclusion chromatography with right-angle light scattering); CtCHAD incubated with 1 mM polyP (average chain length ∼30 Pi units) for 3 h at room temperature, 2 mg/ml, 20 mM Hepes pH 7.5, 150 mM NaCl, Superdex 200 10/300 increase, 35°C.
Series [3] concerns the molecule itself. As to the kind of experiment: SEC; analytical size-exclusion chromatography, Superdex 200 Increase 10/300 GL, buffer A (50 mM PBS, pH 7.5, 500 mM NaCl), 500 μl of protein at 0.5 mg/ml, no polyP. For orientation: Size exclusion chromatography separates by hydrodynamic size, large species first.
Series [4] deals with the molecule itself. The series is described as follows: SEC-RALS (size-exclusion chromatography with right-angle light scattering); apo CtCHAD, 2 mg/ml, 20 mM Hepes pH 7.5, 150 mM NaCl, Superdex 200 10/300 increase, 35°C.

Bounds are passed on as bounds.

By IC50 is commonly meant the midpoint of a concentration-inhibition curve. A higher IC50 goes with weaker potency. What is called stoichiometry N is the number of molecules, sites or subunits per partner or assembly.

Consider `O=P(O)(O)OP(=O)(O)OP(=O)(O)O` [tripolyphosphate], for which the “malachite green phosphate release” value was “The substrates tested were ATP (Merck), sodium tripolyphosphate (Merck), and polyP” at ygiF-TTM 1–200 (TTM); “CHAD domain stimulated the previously reported tripolyphosphatase activity of ygiF” in series [1]. The molecule also displayed a half-maximal inhibitory concentration (IC50) at CtCHAD of around 200 nM.

B1: CtCHAD^208–522 (CHAD domain–containing protein from Chlorobium tepidum) (domain or fragment, UniProt Q8KE09 208-522, looked up)
chain: SSKLRLQLDAHASIHENVRRLLQFTTSIMEANEEGIRKDIDSEFLHDFRVAIRRSRSILRLLNGVFDPEKTAWMLAGLRELGKRTNDLRDSDVYLLRREEYTSLLPPSLRPALDPFFSDLEADKRLHHRQFCRYLTGREYSGFMTSLKEFIAEGELPDPETAPLAAEPTGDVAAKTIRKALKKVLVHGRRTGSETSDAELHELRIDCKKLRYLLEFFASLFPPKATAQVLRQMKTLQDNLGTFVDLTVQMEFLQSRLETIPADRGGISEAAAIGGLLTTLYRKREKVREHFHEIFSGFDSNETGELFDELLTGLA
notes: CHAD domain of the C. tepidum CHAD domain–containing protein, UniProt Q8KE09, residues 208-522; synthetic gene; not shown: His6, N-terminal, cleaved
Regarding B1, the entries for the “stoichiometry N” value in series [2], in series [3] and in series [4] were at least 4, 2 and 4, respectively.

For the origin of these results see paper PMC6537752, “Molecular characterization of CHAD domains as inorganic polyphosphate-binding modules” (Life Science Alliance, 2019).
